Data on three compounds can be found in PMC6273963, “Design, Synthesis, and Biological Evaluation of Some Novel Pyrrolizine Derivatives as COX Inhibitors with Anti-Inflammatory/Analgesic Activities and Low Ulcerogenic Liability” (Molecules, 2016).

For series [1], the system named is mPGES-1. The arrangement: method as in PMID 19719242. The note with it: cell free; cited from earlier work.
Series [2] concerns 5-LOX. More on the design: method as in PMID 8021931, PMID 9396390, PMID 12660020, PMID 19719242. To be noted: literature values, Figures 1 and 2; cited from earlier work.
The subject of series [3] is rat paw edema. More on the design: method as in PMID 19913956. The note with it: in comparison with ketorolac; cited from earlier work.
Series [4] concerns carrageenan-induced rat paw edema. Kind of series: Carrageenan-induced rat paw edema model (anti-inflammatory activity). It counts as in vivo. More on the design: key to Potency (anti-inflammatory activity of tested compound/ibuprofen): ratio of % inhibition of edema (compound / ibuprofen); ibuprofen = 1.00. From the text: The carrageenan-induced rat paw edema model was utilized to investigate the anti-inflammatory activity of compounds 12–19 relative to ibuprofen as a reference drug.
(§1) Adult albino rats of both sex weighing 100–140 g were used in evaluation of the anti-inflammatory, analgesic, ulcerogenic activity in addition to the histopathological study of the new pyrrolizines 12–19. Animal ethical use clearance was obtained from the Ethical Committee at the College of Pharmacy, Umm Al-Qura University. Normalization of the animals with laboratory conditions were achieved by keeping them in laboratory one week before starting the experiments. Standard rat pellet diet was used for feeding animals and water ad libitum.
The anti-inflammatory activity of the novel compounds 12–19 was evaluated in comparison with ibuprofen as a standard, using a rat paw edema model as described by Winter et al.. Adult albino rats of both sexes (100–140 gm) were used. Rats were uniformly hydrated by giving 3 mL water for each rat through gastric inoculation to reduce variability to edema response. Animals were then divided into groups of six animal each. The control group was given saline solution containing few drops of sodium carboxymethyl cellulose (CMC) 1% and DMSO. Ibuprofen (50 and 100 mg/kg) was given as standard drug. The new compounds 12–19 in a dose molecularly equivalent to ibuprofen were dissolved in 0.5 mL DMSO and CMC 1% was added dropwise with continuous triturating to complete the specified volume. The tested compounds were administered intraperitoneally (IP). The induction of inflammation was achieved by subcutaneous (SC) injection of carrageenan-sodium gel, into the sub-plantar region of the right hind paw. The dorsoventral diameter (thickness) of the right and left hind paw of each rat was measured using digital calipers with accuracy of 0.01 mm (Cole-Parmer, Vernon Hills, IL, USA). The thickness of edema was measured 1, 2 and 3 h after induction of inflammation. The left hind paw diameter served as a control for the degree of inflammation in the right hind paw. The changes in the edema thickness were expressed as mean ± SEM, Figure 4. The anti-inflammatory activity was calculated as % inhibition of inflammation = (1 − Lt/Lc) × 100. Where Lt is the mean increase in paw thickness in rats treated with the tested compounds and Lc is the mean increase in paw thickness in control group. Data were collected, and statistically analyzed by One way ANOVA followed by student-Newman-Keuls multiple comparison test, Table 2.
A general note: Carrageenan injected into the paw causes an acute inflammation.

Series [5] has as its system thermal pain (hot plate). Kind of series: Hot-plate test (analgesic activity). To be noted: IP, 0.24 and 0.48 mmol/kg, 2 h after injection, compared with ibuprofen. The format is in vivo, rat. A general note: In hot-plate and tail-flick tests a longer latency is read as antinociception.
Protocol: A hot-plate was used to induce thermal pain and the cutoff time was fixed to 15 s [30]. […] The analgesic activity of the novel pyrrolizines were carried out using the thermal model (hot-plate test) according to a previous report [30]. An electronically controlled hot-plate (Harvard Apparatus Ltd., Kent, UK) was used and the cut-off time was 15 s and the temperature was adjusted to 52 ± 0.1 °C. Animals were then divided into groups of six animal each. Rats were assigned numbers of 1–6 in each group. The reference drug was given intraperitoneally at a dose of 50 mg/kg (0.24 mmol/kg) and 100 mg/kg (0.48 mmol/kg). […] The response latencies (time elapsed until licking paw or jumping) were measured and expressed as mean ± SEM. The percent changes (analgesic effects) of the tested compounds were calculated as percent change in latencies divided by baseline time (100 × (T1 − T0)/T0) and results were expressed as % change ± SEM, Figure 6.
The test system of series [6] is rat stomach mucosa. Kind of series: Acute ulcerogenicity study. The note with it: oral, 0.48 mmol/kg. It counts as in vivo. As to the method: GIT toxicity is the main serious side effect of the NSAIDs. In this work, the ulcerogenicity of the novel compounds 12–19 was evaluated according to the previous reported methodology. The tested compounds 12–19 and ibuprofen were given orally in a dose of 0.48 mmol/kg.
as §1
GIT toxicity was evaluated according to the previous report. Adult albino rats of both sexes were divided into groups of six animals each. The test compounds were dissolved first in 0.5 mL DMSO, then CMC (1%) was added dropwise with trituration. Rats were fasted 20 h before drug administration. The eight tested compounds and ibuprofen were given orally in a dose of 0.24 and 0.48 mmol/kg/day suspended in 1% CMC, while the control group received vehicle (1% CMC containing few drops of DMSO). Rats were then fasted for 2 h, allowed to feed for 2 h then fasted again for another 20 h. Other doses were given in the second and third days. In the fourth day, Pentobarbital (60 mg/kg IP) was used to induce deep anesthesia then rats were sacrificed. The stomachs were removed, opened along with the greater curvature and rinsed with 0.9% saline. The number of mucosal damages (red spots) were counted using magnifying lens and their severity (ulcerogenic severity) was graded in a scale from 0 to 3 as follows: (0) normal (no injury), (0.5) red coloration, (1) spot ulcer, (1.5) hemorrhagic streaks, (2) ulcer > 3 mm, (3) ulcer > 5 mm. The ulcer index was calculated using the following equation ulcer index (UI) = UN + US + UP/10, where UN is the average number pf ulcers per animal, US is the average of severity score, UP is the percent of animal with ulcer.

The target of series [7] is T1, COX-2 (human recombinant) (Homo sapiens, UniProt P35354).
T1 sequence (P35354 18-604): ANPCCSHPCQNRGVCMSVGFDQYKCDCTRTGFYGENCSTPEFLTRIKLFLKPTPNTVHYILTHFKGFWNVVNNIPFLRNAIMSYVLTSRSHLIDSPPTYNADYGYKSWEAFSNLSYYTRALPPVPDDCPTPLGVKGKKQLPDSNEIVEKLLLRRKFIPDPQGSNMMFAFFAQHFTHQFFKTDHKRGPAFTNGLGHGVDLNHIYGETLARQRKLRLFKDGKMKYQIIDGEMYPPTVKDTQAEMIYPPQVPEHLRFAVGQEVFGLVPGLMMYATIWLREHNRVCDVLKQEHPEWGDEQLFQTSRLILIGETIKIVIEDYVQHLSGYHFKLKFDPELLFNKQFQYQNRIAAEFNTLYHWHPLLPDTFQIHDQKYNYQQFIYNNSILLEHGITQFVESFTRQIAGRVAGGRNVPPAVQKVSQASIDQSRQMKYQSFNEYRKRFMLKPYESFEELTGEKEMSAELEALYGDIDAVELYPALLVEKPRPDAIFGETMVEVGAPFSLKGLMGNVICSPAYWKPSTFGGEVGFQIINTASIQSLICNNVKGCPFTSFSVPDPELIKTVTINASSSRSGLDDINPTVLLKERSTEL
Kind of series: COX colorimetric inhibitor screening assay, COX-2.

Series [8] has as its system stomach mucosa, submucosa and mucosal glands. The experiment in a line: Histopathological study of rat stomach. It counts as in vivo. The note with it: rats of the ulcerogenicity test, haematoxylin and eosin stain.
Description: The stomachs of the rats used in ulcerogenicity test were subjected to a histopathological study to visualize the deep effects of ibuprofen and tested compounds on the stomach mucosa, submucosa and mucosal glands. The specimens were stained with haematoxylin and eosin stain [33].
The study investigated the deep effect of the tested compounds on the mucosa, submucosa and mucosal gland. The stomachs which were opened longitudinally along the greater curvature were used and the specimens were taken from the stomachs of all cases. These specimens were fixed in 10% formalin solution for 72 h. The samples were processed and embedded in paraffin wax. Microtomy was done and 5 microns tissue sections were obtained and mounted on clean glass slides.
The target in series [9] is T2, COX-1 (ovine) (Ovis aries, UniProt P05979).
T2 sequence (P05979 25-600): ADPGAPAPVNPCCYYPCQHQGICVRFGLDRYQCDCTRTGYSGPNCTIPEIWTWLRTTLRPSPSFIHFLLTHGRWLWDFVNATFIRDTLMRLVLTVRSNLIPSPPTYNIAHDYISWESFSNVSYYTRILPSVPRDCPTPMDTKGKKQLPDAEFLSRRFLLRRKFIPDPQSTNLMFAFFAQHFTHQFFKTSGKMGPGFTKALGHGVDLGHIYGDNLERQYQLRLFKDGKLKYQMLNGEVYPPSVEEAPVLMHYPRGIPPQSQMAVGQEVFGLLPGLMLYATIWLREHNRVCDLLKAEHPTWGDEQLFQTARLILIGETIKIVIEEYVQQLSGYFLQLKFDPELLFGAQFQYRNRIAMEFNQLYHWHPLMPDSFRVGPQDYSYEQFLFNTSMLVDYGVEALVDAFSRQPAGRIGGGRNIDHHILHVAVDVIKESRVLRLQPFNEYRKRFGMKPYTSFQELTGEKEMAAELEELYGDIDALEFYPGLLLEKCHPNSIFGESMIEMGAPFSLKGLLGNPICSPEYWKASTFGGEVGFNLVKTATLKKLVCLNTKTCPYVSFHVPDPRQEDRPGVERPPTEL
Kind of series: COX colorimetric inhibitor screening assay, COX-1.

As to `Cc1ccc(S(=O)(=O)NC(=O)Cc2c(-c3ccc(Cl)cc3)c(-c3ccccc3)c3n2CC(C)(C)C3)cc1` [Compound 6], the IC50 was 4800 nM in series [1] and 260 nM in series [2].

For the compound `N#Cc1c(N)c(C(=O)Nc2ccc(C(=O)O)cc2)n2c1CCC2` [Compound 7], in series [3], the “reduction in rat paw edema” value was “approximately 50%”.

Compound `N#Cc1c(NC(=O)C(=O)Nc2c(C#N)c3n(c2C(=O)Nc2ccc(Br)cc2)CCC3)c(C(=O)Nc2ccc(Br)cc2)n2c1CCC2` [Compound 18, N^1,N^2-Bis(5-((4-Bromophenyl)carbamoyl)-7-cycno-2,3-dihydro-1H-pyrrolizin-6-yl)oxalamide] gave a melting point of 318 to 321 °C. Also, in series [4] (1 h after induction of inflammation, IP, dose molecularly equivalent to ibuprofen, n = 6), the “% Inhibition in Edema Thickness 1 h” value came to 6.91%. Besides, in series [4] (2 h after induction of inflammation, IP, dose molecularly equivalent to ibuprofen, n = 6), the “% Inhibition in Edema Thickness 2 h” value stood at 17.72%. Moreover, in series [4] (3 h after induction of inflammation, IP, dose molecularly equivalent to ibuprofen, n = 6), the “% Inhibition in Edema Thickness 3 h” value was determined as 22.42%. Moreover, the “Potency (anti-inflammatory activity of tested compound/ibuprofen)” value in series [4] (after 3 h of induction of inflammation, relative to ibuprofen) turned out to be 0.55. Also, in series [4] (compared with ibuprofen and parent compound 12), the “anti-inflammatory activity (in words)” value was “lower activity than both ibuprofen and the parent compound 12”. Besides, the “analgesic activity (in words)” value in [5] is “lower than that of ibuprofen”. The “Ulcerogenicity UI (ulcer index)” value in series [6] (three days, n = 6) came out at 4.41. Besides, in series [6] (relative to ibuprofen), the “Ulcerogenicity % Protection (% inhibition of ulcer relative to ibuprofen)” value amounted to 68.18%. For the same compound, in [7], the IC50 was determined as 850 nM. Further, the “SI (COX-2 selectivity index = IC50 of COX-1/IC50 of COX-2)” value in series [7] (in vitro) stood at 6.03. In [8], the “histopathological findings in stomach transverse sections” value is “little histopathological effects such as congested blood vessels and variable degrees of leukocytes infiltration”. In series [9], this compound yielded an IC50 of 5100 nM.

Broadly, the IC50 is the point on the concentration scale where inhibition reaches its midpoint. By melting point is commonly meant the temperature of the solid-liquid transition.
